Assay results: patent publication US20240124389A1, “COMPOUND OR SALT THEREOF, LIPID PARTICLES, AND PHARMACEUTICAL COMPOSITION” (FUJIFILM Corporation, priority 2021, published 2024)

Columns and labels:
human EPO = assay: Measurement of EPO enzyme activity (EPO protein in blood plasma of mice after intravenous administration of EPO mRNA lipid particles); assay type: in vivo; conditions: C57BL/6J mice, tail-vein i.v., mRNA 0.1 mg/kg, plasma 20 to 24 hours, lipid/nucleic acid 32 wt/wt
Experimental: (§1) The compounds described in Table 1, the neutral lipid, cholesterol (product name: Cholesterol HP; NIPPON FINE CHEMICAL CO., LTD.), and 1,2-dimyristoyl-rac-glycero-3-(methylpolyoxyethylene 2000) (hereinafter, called DMG-PEG2000) (product name: SUNBRIGHT® GM-020; NOF corporation) were dissolved in ethanol at a molar ratio in Table 1 such that the total lipid concentration became 20 mmol/L, thereby obtaining an oil phase.
(§2) As the neutral lipid, 1,2-distearoyl-sn-glycero-3-phosphocholine (product name: COATSOME® MC-8080; NOF corporation) (hereinafter, DSPC), or L-α-dioleoyl phosphatidylethanolamine (Hereinafter, DOPE) (product name: COATSOME® ME-8181; NOF corporation), or 1,2-dioleoyl-sn-glycero-3-phosphocholine (hereinafter, DOPC) (product name: COATSOME® MC-8181; NOF corporation) was used.
(§3) EPO mRNA (product name: CleanCap EPO mRNA (5moU); TriLink) was diluted with 50 mmol/L citrate buffer having a pH 4 such that the weight ratio of total lipid concentration to mRNA concentration is about 16:1 to 64:1, thereby obtaining a water phase. Then, the water phase and the oil phase were mixed together using NanoAssemblr (Precision NanoSystems) such that the volume ratio of water phase:oil phase was 3:1, and the mixed solution was 1.5-fold diluted with phosphate buffered saline (PBS), thereby obtaining a dispersion liquid of mRNA lipid particles. The dispersion liquid was dialyzed with a 10% aqueous sucrose solution using a dialysis cassette (Slide-A-Lyzer G2, MWCO: 10 kD, Thermo Fisher Scientific) to remove ethanol, thereby obtaining EPO mRNA-encapsulating lipid particles.
The dispersion liquid of mRNA lipid particles prepared in above-described <Preparation of EPO mRNA-encapsulating lipid particles> was tail-vein intravenously administered to C57BL/6J mice at a mRNA dosage of 0.1 mg/kg. 20 to 24 hours after the administration, blood was collected from the caudal vena cava, thereby obtaining blood plasma. The human EPO enzyme activity was quantified by using the obtained blood plasma and ab119522 Erythropoietin (EPO) Human Elisa Kit (Abcam.plc). The quantitative value is described as a relative amount of EPO protein in a case where Comparative Example 1 is 1.

FLuc mRNA [1] = assay: mRNA encapsulation rate of FLuc mRNA-encapsulating lipid particles; assay type: physicochemical; conditions: lipid/nucleic acid 32 wt/wt
EPO mRNA = assay: mRNA encapsulation rate of EPO mRNA-encapsulating lipid particles; assay type: physicochemical; conditions: lipid/nucleic acid 32 wt/wt
Experimental: as §1, §2, §3
(§4) 15 to 30 μL of a 3 mol/L aqueous sodium acetate solution and 4.5 to 9 μL of glycogen were added to 30 to 60 μL of the lipid particles retaining mRNA, and 0.75 to 1.5 mL of ethanol was added thereto, so that only the nucleic acids were precipitated while the lipid was dissolved. Then, the supernatant was removed by centrifugation. The precipitates were air-dried for 15 minutes or longer, then water was added thereto to redissolve the precipitates, and the concentration thereof was measured using Nanodrop NF1000 (Thermo Fisher Scientific), thereby quantifying the total mRNA concentration.
(§5) The mRNA concentration was quantified using a Quant-iT RiboGreen RNA Assay Kit (Thermo Fisher Scientific) according to the protocol. First, a 20×TE buffer included in the above-described kit was diluted with water, thereby obtaining a 1×TE buffer. TE represents Tris/EDTA (ethylenediaminetetraacetic acid). In order to quantify only mRNA in the outer water phase, the dispersion liquid of lipid particles retaining mRNA was 10,000-fold diluted with the 1×TE buffer. 100 μL of the 10,000-fold diluted dispersion liquid of lipid particles was put into a 96-well plate, then 100 μL of a RiboGreen reagent (reagent included in the Quanti-iT Ribogreen RNA Assay Kit described above) 2,000-fold diluted with the 1×TE buffer was added to a sample, and fluorescence (excitation wavelength: 485 nm, fluorescence wavelength: 535 nm) was measured using a plate reader Infinite F200 (TECAN), thereby quantifying the mRNA concentration in the outer water phase.
(§6) By using the quantification results of the total mRNA concentration and the mRNA concentration in the outer water phase that were obtained through the above steps, the mRNA encapsulation rate of the mRNA lipid particles was calculated according to the following Equation.
(§7) mRNA encapsulation rate (%)=(total mRNA concentration-mRNA concentration in outer water phase)/total mRNA concentration×100

FLuc mRNA [2] = assay: mRNA encapsulation rate of FLuc mRNA-encapsulating lipid particles; assay type: physicochemical; conditions: aminolipid 45 / DOPE 10 / cholesterol 43.5 / DMG-PEG2000 1.5 mol %, lipid/nucleic acid 32 wt/wt
Experimental: (§8) The compounds described in Table 2, the neutral lipid, cholesterol (product name: Cholesterol HP; NTPPON FINE CHEMICAL CO., LTD.), and 1,2-dimyristoyl-rac-glycero-3-(methylpolyoxyethylene 2000) (hereinafter, called DMG-PEG2000) were dissolved in ethanol at a molar ratio in Table 2 such that the total lipid concentration became 20 mmol/L, thereby obtaining an oil phase.
(§9) As the neutral lipid, 1,2-distearoyl-sn-glycero-3-phosphocholine (product name: COATSOME® MC-8080; NOF corporation) was used in a case of Comparative Example 1, and L-α-dioleoylphosphatidylethanolamine (product name: COATSOME® MC-8181; NOF corporation) was used in a case other than Comparative Example 1.
as §3, with “FLuc” for “EPO”, “(5 moU);” for “(5moU);”, “19:1” for “16:1”, “64:1,” for “64:1, thereby”
as §4, §5, §6, §7

[3] = Particle size of EPO mRNA-encapsulating lipid particles; assay type: physicochemical; conditions: lipid/nucleic acid 32 wt/wt
Experimental: as §1, §2, §3
(§10) The particle size of the mRNA-encapsulating lipid particles was measured by 10-fold diluting the dispersion liquid of lipid particle with phosphate buffered saline (PBS) using Zeta-potential & Particle size Analyzer ELS-Z2 (Otsuka Electronics Co., Ltd.).

[4] = Particle size of FLuc mRNA-encapsulating lipid particles; assay type: physicochemical; conditions: lipid/nucleic acid 32 wt/wt
Experimental: as §8, §9
as §3, with “FLuc” for “EPO”, “(5 moU);” for “(5moU);”, “19:1” for “16:1”, “64:1,” for “64:1, thereby”
as §10

[5] = as above; assay type: physicochemical; conditions: aminolipid 45 / DOPC 10 / cholesterol 43.5 / DMG-PEG2000 1.5 mol %, lipid/nucleic acid 32 wt/wt
[6] = aminolipid 45 / DOPC 10 / cholesterol 43.5 / DMG-PEG2000 1.5 mol %
[7] = aminolipid 45 / DOPE 10 / cholesterol 43.5 / DMG-PEG2000 1.5 mol %
[8] = aminolipid 45 / no neutral lipid / cholesterol 53.5 / DMG-PEG2000 1.5 mol %
[9] = aminolipid 45 / neutral lipid — (composition printed 10) / cholesterol 53.5 / DMG-PEG2000 1.5 mol %

CCCCCC(CCCCC)COC(=O)CCCC(CCC)OC(=O)OCCN(CCCN(CC)CC)CCOC(=O)OC(CCC)CCCC(=O)OCC(CCCCC)CCCCC (stereo not drawn) [Example 28, Bis(2-pentylheptyl) 11-(3-(diethylamino)propyl)-7,15-dioxo-5,17-dipropyl-6,8,14,16-tetraoxa-11-azahenicosanedi oate]
Relative amount of EPO protein (with respect to Comparative Example 1) (human EPO; [6]): 3.54
Relative amount of EPO protein (with respect to Comparative Example 1) (human EPO; [7]): 1.23
Relative amount of EPO protein (with respect to Comparative Example 1) (human EPO; [8]): 1.47
Nucleic acid encapsulation rate (FLuc mRNA [1]; [6]): 99.1%
Nucleic acid encapsulation rate (FLuc mRNA [1]; [9]): 99.1%
Nucleic acid encapsulation rate (EPO mRNA; [6]): 99.2%
Nucleic acid encapsulation rate (EPO mRNA; [7]): 98.8%
Nucleic acid encapsulation rate (EPO mRNA; [8]): 99.2%
Nucleic acid encapsulation rate (FLuc mRNA [2]): 100.0%
Particle size [3, 6]: 82.1 nm
Particle size [3, 7]: 115.7 nm
Particle size [3, 8]: 155.2 nm
Particle size [4, 7]: 82.9 nm
Particle size [4, 9]: 164.6 nm
Particle size [5]: 104.3 nm
